From patent publication US20110207751A1, “HETEROCYCLIC COMPOUNDS AND USES AS ANTICANCER AGENTS” (priority 2010, published 2011)
Structures can show the parent of a compound that is named as a salt.

Test system: human cancer cell lines
Assay: RT-CES / xCelligence profiling over the panel of cell lines
Type: cell-based
From the text: The biological activity of compounds disclosed herein was monitored and profiled using the Real-Time Cell Electronic Sensing (RT-CES®) system from ACEA Biosciences, Inc. The RT-CES system utilizes cell-substrate impedance technology to monitor cellular behavior inside tissue culture wells in a microtiter plate format. The technology features in the integration of molecular and cell biology with microelectronics and is based on the electronic detection of biological assay process. […]
For measurement of cell-substrate or cell-electrode impedance using RT-CES technology, microelectrodes having appropriate geometries are fabricated onto the bottom surfaces of microtiter plate or similar device, facing into the wells. […] When there are changes to the biological status of the cells analogue electronic readout signals are measured automatically and in real time, and are converted to digital signals for processing and for analysis. In a RT-CES system, a cell index (arbitrary representation of change in impedance) is automatically derived and provided based on measured electrode impedance values. […]
To quantify cell status based on the measured cell-electrode impedance, a parameter termed Cell Index is derived. Cell Index is a quantitative measure of the status of the cells in an electrode-containing well. […]

- IC50 towards all tested cancer cell lines (all tested cancer cell lines): low nM range
SMILES: CCc1ccc(Nc2nc(-c3c(C)nc4sccn34)cs2)cc1 [COMPOUND O, 2-(4-ethylphenyl)amino-4-(6-methylimidazo[2,1-b]thiazol-5-yl)-thiazole monohydrobromide]
- effect on the proliferation of the cancer cell lines (cell lines listed in b189 (FIGS. 4-24)): exhibited inhibitory effect
